We go through 10 compounds from article PMC8986850, “Development and exploration of novel substituted thiosemicarbazones as inhibitors of aldose reductase via in vitro analysis and computational study” (Scientific Reports, 2022).

One data set concerns the target T1, ALR2 (Bos taurus, UniProt P16116).
T1 construct: from tissue; host or cells: calf eye lenses
The data set is described as follows: ALR2 enzyme inhibition assay (enzyme extracted from calf lenses). It counts as biochemical, bovine. The following applies: for inhibition at 100 µM: bovine lens ALR2, 100 µM inhibitor, read-out: I (%, 100 µM) (ALR2) (converted); for IC50: bovine lens ALR2, substrate DL-glyceraldehyde, mean ± SEM of three measurements. As for the experimental part: Compounds 3a-o were tested against ALR2 to evaluate their inhibitory potential against aldose reductase whereas selectivity was determined via performing ALR1 inhibition assay. For the enzyme inhibition assay, ALR2 and ALR1 were extracted from bovine sources (ALR2 from eyes and ALR1 from kidneys). Moreover, inhibitions studies were also carried out on the expressed ALR2 (human AKR1B1) and inhibition data for ALR2- bovine source and expressed enzyme was compared and analyzed. The protocols for enzyme extraction and expression in the bacterial system are included in the section of “Supporting information”. […] For the purpose of comparison and validation of enzyme inhibition data, these compounds were tested against human AKR1B1 (hAKR1B1) expressed in E. coli BL21 (DE3).
(§1) For the determination of enzyme activity of ALR1 and ALR2, 100 µL of reaction mixture was composed of 20 µL of buffer (100 mM sodium phosphate, pH 6.2), 30 µL of enzyme extract, 20 µL of substrate (10 mM), 20 µL of cofactor (0.1 mM of NADPH) and 10 µL of test compound (1 mM)[6],[21]. The reaction mixture without cofactor was incubated at 32°C for 10 min, then the enzymatic reaction was initiated with the addition of NADPH and monitored for 5 minutes. Similar protocols were followed for ALR1 and ALR2, however the substrate was different for each enzyme, with sodium-D-glucoronate and DL-glyceraldehyde used as the substrates for the ALR1 and ALR2 assays, respectively. […] In addition, similar protocols were adopted for human AKR1B1 that was expressed in E. coli BL21 (DE3), though the determined protein concentration was 12 µg/mL for the expressed enzyme. Detailed protocols for the preparation of ALR1, ALR2 and expressed human AKR1B1 can be found in the supporting information.
(§2) The newly synthesized N-substitute thiosemicarbazones (3a-o) were dissolved in 100% DMSO and diluted with deionized water, keeping the DMSO concentration equal to 0.1% in the assay.
The extraction of ALR2 was carried out from calf lenses via adopting method described in
in (Hayman and Kinoshita 1965) with little modification. The lenses were obtained from slaughterhouse immediately after calf’s slaughtering and stored at -20^◦C until further use. These lense (150-170g) were subjected to homogenization with about three times volume of cold distilled water and then centrifugation was carried out for the homogenate at 10,000 x g for 14 minutes for removal of insoluble lipids particles. Precipitates were discarded and supernatant layer was subjected to 40% saturation of ammonium sulphate and again centrifugation was performed with same parameters for 14 minutes and again precipitates were discarded. […] In the last step, the supernatant was subjected to 75% of saturation with ammonium sulphate to obtain ALR2. Now, the precipitates were collected instead supernatant because precipitated protein was the expected desired ALR2. The precipitated enzyme (ALR2) was redissolved in 50mM solution of sodium chloride and dialyzed for 24 hours against 50mM solution (3.5L) of NaCl. The volume was recorded before and after dialysis, then dialyzed material was treated with liquid nitrogen. The extracted ALR2 was stored in 1mL Eppendorf tube in deep freezer at -80 ^◦C till further enzymatic studies.

The nature of data set [1]: DPPH radical scavenging activity. The following applies: 100 µM compound, methanolic DPPH 0.025 mg/mL, 517 nm. The method, then:
DPPH (2,2-diphenyl-1-picrylhydrazyl) was used to explore the free radical quenching ability of 3a-o so as to provide a gauge of their antioxidant potential. The experiment was conducted according to a previously reported protocol with slight modifications. Percent free radical scavenging activities (% FRSA) of 3a-o were determined by spectrophotometric analysis at 517 nm using a homogenous mixture of methanolic DPPH (0.025 mg/mL) and a 100 µM solution of the tested compound, with ascorbic acid used as a positive control (Fig. 3).

Another data set concerns the target T2, human AKR1B1 (hAKR1B1) (Homo sapiens, UniProt P15121).
T2 construct: made in house; host or cells: E. coli BL21 (DE3)
Briefly: Inhibition of expressed human AKR1B1 (E. coli BL21 (DE3)). It is filed as biochemical. The following applies: for inhibition at 100 µM: human AKR1B1 expressed in E. coli, 100 µM inhibitor, read-out: I (%, 100 µM) (AKR1B1); for IC50: human AKR1B1 expressed in E. coli BL21 (DE3), mean ± SEM of three measurements. As for the experimental part: For the enzyme inhibition assay, ALR2 and ALR1 were extracted from bovine sources (ALR2 from eyes and ALR1 from kidneys). Moreover, inhibitions studies were also carried out on the expressed ALR2 (human AKR1B1) and inhibition data for ALR2- bovine source and expressed enzyme was compared and analyzed. The protocols for enzyme extraction and expression in the bacterial system are included in the section of “Supporting information”. […] For the purpose of comparison and validation of enzyme inhibition data, these compounds were tested against human AKR1B1 (hAKR1B1) expressed in E. coli BL21 (DE3).
as §1, with “The reaction mixture without cofactor was incubated at 32°C for 10 min, then the enzymatic reaction was initiated with the addition of NADPH and monitored for 5 minutes.” left out
as §2
The expression plasmid for aldose reductase (pDONR223_AKR1B1_WT) was gift from Addgene in stable culture. Streaking of this culture has been carried out on LB Agar plate then incubated overnight, after growth of colonies , inoculation was performed in LB medium then incubated this medium in shaking incubator at 37 °C. After 48 hours turbidity was measured when OD=0.6 then some of bacterial growth was prepared as 50% glycerol stock. Others are subjected to plasmid isolation following method Miniprep. Meanwhile E. Coli BL21 De3 cells were made competent then transformation with extracted plasmid (AKR1B1) had been carried out heat shock method. Transformed cell ( E.Coli BL21 DE3+AKR1B1) were grown in 37 °C in shaking incubator for 48 hr. The selection for transformed cells was carried out with the help of antibiotic (spectinomycin 50µg/ml). […] For the expression of aldose reductase , E.coli BL21DE3 were induced with of IPTG(Isopropyl-d-thiogalactopyranoside)[3]. […] The expressed enzyme was stabilized by addition 10 mM Tris–HCl buffer, 0.5 mM EDTA, 5 mM β-marcaptoethanol at pH 8.0 and 20% (v/v) glycerol. Cells were lysed with lysis buffer and then precipitation with ammonium sulfate up to 80% saturation was done . the expressed enzyme was dialyzed overnight against tris buffer. Protein quantification was performed following Bradford protein assay. Aliqoutes were stored at -80 refrigerator.

The target of a further data set is T3, ALR1 (Bos taurus, UniProt Q3ZCJ2).
T3 construct: The calf’s kidneys were obtained after slaughtering and dissection; from tissue; host or cells: calf kidneys
Briefly: ALR1 enzyme inhibition assay (enzyme extracted from calf kidneys). It counts as biochemical, bovine. As for the experimental part: Compounds 3a-o were tested against ALR2 to evaluate their inhibitory potential against aldose reductase whereas selectivity was determined via performing ALR1 inhibition assay. For the enzyme inhibition assay, ALR2 and ALR1 were extracted from bovine sources (ALR2 from eyes and ALR1 from kidneys). Moreover, inhibitions studies were also carried out on the expressed ALR2 (human AKR1B1) and inhibition data for ALR2- bovine source and expressed enzyme was compared and analyzed. The protocols for enzyme extraction and expression in the bacterial system are included in the section of “Supporting information”. […] For the purpose of comparison and validation of enzyme inhibition data, these compounds were tested against human AKR1B1 (hAKR1B1) expressed in E. coli BL21 (DE3). We found a similar pattern of enzyme inhibition for the synthesized compounds against extracted enzyme (ALR2) as well as expressed enzyme (hAKR1B1).
as §1, §2
The calf’s kidneys were obtained after slaughtering and dissection, dissolved in 3 volumes of sodium phosphate buffer (10mM) which is composed of 2.0 mM EDTA, 2.5mM β-mercaptoethanol, 0.25M solution of sucrose at pH 7.25. First, the homogenisation was carried out then centrifugation of the homogenate was performed at 12000 x g at 0-2^◦C for 30 minutes. The precipitates containing insoluble lipids were discarded and the collected supernatant layer was treated with 40% saturation of ammonium sulphate. This liquid mixture was subjected to centrifugation at 11000 x g at 0-2^◦C for 30 minutes. Now, precipitates were again discarded and supernatant was collected and treated with 50% ammonium sulphate and procedure was repeated in the same manner as in previous step. In the last step, the saturation of ammonium sulphate was increased up to 75% and supernatant was subjected to same parameter of centrifugation. At this final step, precipitates were obtained and supernatant layer was discarded. The obtained material of precipitates was composed of ALR1and redissolved in initial buffer that was used during homogenisation. Finally, material was dialyzed overnight with same buffer system. The dialyzed fractions containing ALR1 were stored at -80^◦C for further use[5].

T3 sequence (Q3ZCJ2 whole entry): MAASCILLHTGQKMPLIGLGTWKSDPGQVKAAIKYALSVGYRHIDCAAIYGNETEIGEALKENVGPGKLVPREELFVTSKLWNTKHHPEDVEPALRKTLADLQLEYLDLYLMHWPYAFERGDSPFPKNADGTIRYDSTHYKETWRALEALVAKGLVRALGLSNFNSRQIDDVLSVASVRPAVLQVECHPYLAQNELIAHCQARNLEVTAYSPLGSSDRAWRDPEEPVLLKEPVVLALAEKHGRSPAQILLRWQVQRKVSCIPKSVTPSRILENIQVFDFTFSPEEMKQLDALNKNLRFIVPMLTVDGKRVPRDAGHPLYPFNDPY

The compound `Cc1ccc(NC(=S)NN=Cc2cc(C(C)(C)C)cc(C(C)(C)C)c2O)cc1` [Compound 3k, 2-(3,5-di-tert-butyl-2-hydroxybenzylidene)-N-(p-tolyl)hydrazinecarbothioamide] returned a melting point of 186 to 188 °C. Moreover, the inhibition at 100 µM at ALR2 is not above 44.6%. In addition, in data set [1], the “% FRSA (percent free radical scavenging activity)” value turned out to be 86.60%. Besides, the inhibition at 100 µM at human AKR1B1 (hAKR1B1) was 41.2%. Besides, at ALR1 (bovine kidney ALR1, 100 µM inhibitor, read-out: I (%, 100 µM) (ALR1)), the inhibition at 100 µM is not above 31.6%.

The compound `CCCC(CCC)C(=O)O` [Valproic acid, reference compound] yielded an IC50 on ALR1 (bovine kidney ALR1, substrate sodium-D-glucoronate, mean ± SEM of three measurements) of 49.31 ± 0.005 µM.

On to `CC(C)(C)c1cc(C=NNC(=S)NCc2ccccc2)c(O)c(C(C)(C)C)c1` [Compound 3e, N-benzyl-2-(3,5-di-tert-butyl-2-hydroxybenzylidene)hydrazinecarbothioamide], for which the melting point lay in the range of 190 to 192 °C. Besides, in data set [1], the “% FRSA (percent free radical scavenging activity)” value is 83.20%. For the same compound, the inhibition at 100 µM on human AKR1B1 (hAKR1B1) is 12.3%.

The compound `CC(C)c1ccc(NC(=S)NN=Cc2cc(C(C)(C)C)cc(C(C)(C)C)c2O)cc1` [Compound 3n, 2-(3,5-di-tert-butyl-2-hydroxybenzylidene)-N-(4-isopropylphenyl)hydrazine carbothioamide] came in with a melting point of 189 to 191 °C. The inhibition at 100 µM on ALR2 is not above 39.1%. For the same compound, the “% FRSA (percent free radical scavenging activity)” value in data set [1] came to 7.91%. In addition, at human AKR1B1 (hAKR1B1), the inhibition at 100 µM worked out at 22.6%.

For the compound `O=C1O[C@H]([C@@H](O)CO)C(O)=C1O` [Ascorbic acid, reference compound], in data set [1], the “% FRSA (percent free radical scavenging activity)” value was 89.88%.

Compound `CC(C)(C)c1cc(C=NNC(=S)Nc2ccc(Br)cc2)c(O)c(C(C)(C)C)c1` [Compound 3i, N-(4-bromophenyl)-2-(3,5-di-tert-butyl-2-hydroxybenzylidene)hydrazine carbothioamide] had a melting point of 184 to 186 °C. The inhibition at 100 µM on ALR2 was not above 39.1%. Besides, in data set [1], the “% FRSA (percent free radical scavenging activity)” value is on record as 81.80%. In addition, the inhibition at 100 µM at human AKR1B1 (hAKR1B1) is 22.3%.

`Cc1ccccc1NC(=S)NN=Cc1cc(C(C)(C)C)cc(C(C)(C)C)c1O` [Compound 3d, 2-(3,5-di-tert-butyl-2-hydroxybenzylidene)-N-(o-tolyl)hydrazinecarbothioamide] came in with a melting point of 182 to 184 °C. Moreover, in data set [1], the “% FRSA (percent free radical scavenging activity)” value was 84.58%. In addition, the inhibition at 100 µM at human AKR1B1 (hAKR1B1) amounted to 3.56%.

For the compound `CC(C)(C)c1cc(C=NNC(=S)Nc2ccc(Cl)cc2)c(O)c(C(C)(C)C)c1` [Compound 3l, N-(4-chlorophenyl)-2-(3,5-di-tert-butyl-2-hydroxybenzylidene)hydrazine carbothioamide], the melting point lay in the range of 188 to 190 °C. On ALR2, the inhibition at 100 µM was 81.5% and the concentration for half-maximal inhibition (IC50) was 1.46 ± 0.005 µM. Further, in data set [1], the “% FRSA (percent free radical scavenging activity)” value is listed as 61.55%. Besides, the 50% inhibitory concentration (IC50) against human AKR1B1 (hAKR1B1) came to 1.65 ± 0.004 µM.

The compound `CC(C)(C)c1cc(C=NNC(=S)NC2CCCCC2)c(O)c(C(C)(C)C)c1` [Compound 3h, N-cyclohexyl-2-(3,5-di-tert-butyl-2-hydroxybenzylidene)hydrazinecarbothioamide] displayed a melting point of 168 to 170 °C. Besides, on ALR2, the inhibition at 100 µM was not above 39.1%. The “% FRSA (percent free radical scavenging activity)” value in data set [1] is given as 83.54%. In addition, the inhibition at 100 µM at human AKR1B1 (hAKR1B1) was found to be 38%.

Take `CC(C)(C)c1cc(C=NNC(=S)Nc2ccc(F)cc2)c(O)c(C(C)(C)C)c1` [Compound 3g, 2-(3,5-di-tert-butyl-2-hydroxybenzylidene)-N-(4-fluorophenyl)hydrazine carbothioamide]: the melting point is 176 to 178 °C. Also, on ALR2, half-maximal inhibition (IC50) was put at 2.38 ± 0.0028 µM. The “% FRSA (percent free radical scavenging activity)” value in data set [1] amounted to 85.89%. This compound also had an IC50 on human AKR1B1 (hAKR1B1) of 3.95 ± 0.0038 µM.
